{"source": "patent US20260144880A1", "about": "(priority 2018, published 2026)", "key": {"in vitro": {"assay": "in vitro", "settings": "human"}, "[1]": {"system": "Neuraminidase transfected HEK 293 cells"}, "[2]": {"system": "influenza virus A/Puerto Rico/8/1934 (H1N1)", "format": "in vivo, BALB/c mice", "settings": "DNP-KLH immunized mice, 1.5 μmol/kg intranasally one time a day for five days, 100 LD50"}, "[3]": {"system": "293NA cells (HEK 293 cells that express NA)", "format": "cell-based"}, "[4]": {"system": "Neuraminidase transfected HEK 293 cells", "format": "binding"}, "A/Puerto Rico/8/34": {"system": "A/Puerto Rico/8/34", "set-up": "species or system mice", "settings": "mouse, in vivo, ip"}, "[5]": {"system": "A/Aichi/2/1968 (HA, NA), x-31b (H3N2) virus", "set-up": "species or system mice", "settings": "mouse, in vivo, ip"}, "[6]": {"system": "A/Aichi/2/1968 (HA, NA), x-31b (H3N2) virus", "set-up": "species or system mice", "settings": "mouse, in vivo"}}, "note": "Read-outs that look alike come from different tables or passages of the source.", "data": [{"molecule": "CCCC(=O)OCN(C(=O)[C@@H](NC(=O)[C@H]1CCCCN1C)C(C)CC)[C@H](C[C@@H](OC(C)=O)c1nc(C(=O)N[C@@H](Cc2ccc(O)cc2)C[C@H](C)C(=O)NNC(=O)OCCSSC[C@H](NC(=O)[C@H](CC(=O)O)NC(=O)[C@@H](N)CNC(=O)CCC(=O)N2Cc3ccccc3-c3c(nnn3CCOCCOCCOCCNC(=O)O[C@@H]([C@@H]3OC(C(=O)O)=C[C@H](NC(=N)N)[C@H]3NC(C)=O)[C@H](O)CO)-c3ccccc32)C(=O)O)cs1)C(C)C", "note": "(stereo partly drawn)", "values": [{"measurement": "EC50", "setting": "in vitro", "value": 5.2, "unit": "nM"}, {"measurement": "reduction of cytotoxicity by blocking neuraminidase binding sites", "setting": "[1]", "value": "> 30", "unit": "fold"}]}, {"molecule": "CC(=O)N[C@H]1[C@H]([C@H](O)[C@H](O)CO)OC(C(=O)O)=C[C@@H]1N=C(N)N", "note": "[zanamivir]", "values": [{"measurement": "survival (protection from lethal virus challenge)", "setting": "[2]", "value": 60, "unit": "%"}, {"measurement": "% of killing (LDH)", "setting": "[3]", "value": "no killing"}, {"measurement": "Kd", "setting": "[4]", "value": "~0.77", "unit": "nM"}, {"measurement": "protection 14 days post infection", "setting": "A/Puerto Rico/8/34", "value": "does not provide the same protection"}, {"measurement": "protection 14 days post infection", "setting": "[5]", "value": "does not provide the same protection"}, {"measurement": "protection 14 days post infection", "setting": "[6]", "value": "does not provide the same protection"}]}, {"molecule": "Tubulysin B hydrazide", "values": [{"measurement": "EC50", "setting": "[1]", "value": 9.9, "unit": "nM"}]}]}
